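These data come from cells grown in 96-well plates and exposed to compound for 48 hours at five concentrations. The concentration for 50% growth inhibition is given as GI50. TGI: total growth inhibition.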
Columns and labels:
Assay in all cases: NCI tumour cell line growth inhibition, 48 h
[1] = system: UACC-62 melanoma
[2] = system: A498 renal
[3] = system: OVCAR-8 ovarian
[4] = system: RXF 393 renal
[5] = system: EKVX NSCLC
[6] = system: NCI-H23 lung
[7] = system: DU-145 prostate
[8] = system: SNB-75 CNS
[9] = system: MCF7 breast
[10] = system: HCT-116 colon
[11] = system: SK-MEL-28 melanoma
[12] = system: OVCAR-4 ovarian
[13] = system: NCI/ADR-RES ovarian
[14] = system: SW-620 colon
[15] = system: ACHN renal
[16] = system: MDA-MB-468 breast
[17] = system: K-562 leukemia
[18] = system: MDA-MB-435
[19] = system: OVCAR-3 ovarian
[20] = system: TK-10 renal
[21] = system: UACC-257 melanoma
[22] = system: SF-268 CNS
[23] = system: HS 578T breast
[24] = system: OVCAR-5 ovarian
[25] = system: IGROV1 ovarian
[26] = system: HCT-15 colon
[27] = system: T-47D breast
[28] = system: HT29 colon
[29] = system: SN12C renal
[30] = system: MOLT-4 leukemia
[31] = system: NCI-H460 lung
[32] = system: SK-MEL-2 melanoma
[33] = system: RPMI-8226 leukemia
[34] = system: MALME-3M melanoma
[35] = system: CCRF-CEM leukemia
[36] = system: HCC-2998 colon
[37] = system: NCI-H522 lung
[38] = system: HL-60(TB) leukemia
[39] = system: SK-OV-3 ovarian
[40] = system: U251 CNS
[41] = system: 786-0 renal
[42] = system: SK-MEL-5 melanoma
[43] = system: SR leukemia
[44] = system: KM12 colon
[45] = system: HOP-92 NSCLC
[46] = system: COLO 205 colon
[47] = system: BT-549 breast
[48] = system: CAKI-1 renal
[49] = system: SF-295 CNS
[50] = system: A549 NSCLC
[51] = system: LOX IMVI melanoma
[52] = system: SNB-19 CNS
[53] = system: NCI-H226 lung
[54] = system: PC-3 prostate
[55] = system: SF-539 CNS
[56] = system: MDA-MB-231 breast
[57] = system: M14 melanoma
[58] = system: UO-31 renal
[59] = system: HOP-62 NSCLC

## Clc1cccc(N/N=C/c2c[nH]c3ccccc23)n1
[1]
  GI50: 10.3 µM
  TGI: 22 µM
[2]
  GI50: 18.7 µM
  TGI: 34 µM
[3]
  GI50: 8.12 µM
  TGI: 21 µM
[4]
  GI50: 2.84 µM
  TGI: 18.1 µM
[5]
  GI50: 1.97 µM
  TGI: 16.8 µM
[6]
  GI50: 12.5 µM
  TGI: 26.3 µM
[7]
  GI50: 13 µM
  TGI: 26 µM
[8]
  GI50: 0.141 µM
  TGI: 5 µM
[9]
  GI50: 2.67 µM
  TGI: 16.4 µM
[10]
  GI50: 12.1 µM
  TGI: 25.2 µM
[11]
  GI50: 14.5 µM
  TGI: 27.6 µM
[12]
  GI50: 10.5 µM
  TGI: 29 µM
[13]
  GI50: 2.98 µM
  TGI: 16.5 µM
[14]
  GI50: 13.3 µM
  TGI: 28 µM
[15]
  GI50: 10.5 µM
  TGI: 33.6 µM
[16]
  GI50: 1.89 µM
  TGI: 5.01 µM
[17]
  GI50: 1.94 µM
  TGI: 41 µM
[18]
  GI50: 2.46 µM
  TGI: 12 µM
[19]
  GI50: 3.85 µM
  TGI: 19.3 µM
[20]
  GI50: 19.5 µM
  TGI: 42.3 µM
[21]
  GI50: 11.6 µM
  TGI: 24 µM
[22]
  GI50: 2.99 µM
  TGI: 25.9 µM
[23]
  GI50: 4.17 µM
  TGI: 27.8 µM
[24]
  GI50: 11 µM
  TGI: 23.7 µM
[25]
  GI50: 1.37 µM
  TGI: 6.92 µM
[26]
  GI50: 8.1 µM
  TGI: 21.5 µM
[27]
  GI50: 4.04 µM
  TGI: 19 µM
[28]
  GI50: 15 µM
  TGI: 31.8 µM
[29]
  GI50: 2.28 µM
  TGI: 11.7 µM
[30]
  GI50: 1.55 µM
  TGI: 21.9 µM
[31]
  GI50: 11.5 µM
  TGI: 28.8 µM
[32]
  GI50: 12.9 µM
  TGI: 25.9 µM
[33]
  GI50: 0.83 µM
  TGI: 14.5 µM
[34]
  GI50: 7.33 µM
  TGI: 20.8 µM
[35]
  GI50: 0.307 µM
  TGI: 19.4 µM
[36]
  GI50: 12 µM
  TGI: 24.6 µM
[37]
  GI50: 1.03 µM
  TGI: 12.4 µM
[38]
  GI50: 1.28 µM
  TGI: 13.9 µM
[39]
  GI50: 2.39 µM
  TGI: 16.8 µM
[40]
  GI50: 10.7 µM
  TGI: 25.8 µM
[41]
  GI50: 11.1 µM
  TGI: 24.2 µM
[42]
  GI50: 8.61 µM
  TGI: 21 µM
[43]
  GI50: 2.93 µM
  TGI: 19.3 µM
[44]
  GI50: 9.78 µM
  TGI: 26.9 µM
[45]
  GI50: 5.32 µM
  TGI: 20.7 µM
[46]
  GI50: 13.8 µM
  TGI: 28.8 µM
[47]
  GI50: 0.245 µM
  TGI: 11 µM
[48]
  GI50: 2.23 µM
  TGI: 19.1 µM
[49]
  GI50: 11.4 µM
  TGI: 23.5 µM
[50]
  GI50: 13.2 µM
  TGI: 38.2 µM
[51]
  GI50: 3.32 µM
  TGI: 17 µM
[52]
  GI50: 12.7 µM
  TGI: 30.8 µM
[53]
  GI50: 1.65 µM
  TGI: 17.2 µM
[54]
  GI50: 2.98 µM
  TGI: 26.6 µM
[55]
  GI50: 1.47 µM
  TGI: 11.9 µM
[56]
  GI50: 1.37 µM
  TGI: 9.57 µM
[57]
  GI50: 11.9 µM
  TGI: 25.4 µM
[58]
  GI50: 1.21 µM
  TGI: 14.1 µM
[59]
  GI50: 10 µM
  TGI: 22.3 µM

Reference: PubChem BioAssay (NCI)
